We go through 11 compounds from US20240409585A1, “MACROCYCLIC IMMUNOMODULATORS” (priority 2021, published 2024).

A word on the IC50: it is the concentration at which inhibition is half-maximal.

Structures are written as SMILES. Numbered stars: 1 amine (or outer) side, 2 acyl side, 3 side chain; on linkers, the order of the positions; unused ones are H or OH. Bridge positions count the residues as written; N and C are the ends. Square brackets hold non-standard residues; d marks the D form. Peptide text beside a SMILES is read from it. * marks the point of attachment. ξ: configuration not given here. Phe(3-OCH2COOH) = N[C@@H](Cc1cccc(OCC(=O)O)c1)C(=O)O; Ala(morpholin-4-yl) = N[C@@H](CN1CCOCC1)C(=O)O; Phe(4-COOH) = N[C@@H](Cc1ccc(C(=O)O)cc1)C(=O)O; X23 = O=C([C@H](Cc1cc2ccccc2cn1)N[*:1])[*:2]; Bip = N[C@@H](Cc1ccc(-c2ccccc2)cc1)C(=O)O; Phe(3-Me) = Cc1cccc(C[C@H](N)C(=O)O)c1; Phe(2-F) = N[C@@H](Cc1ccccc1F)C(=O)O; 4Pal = N[C@@H](Cc1ccncc1)C(=O)O; Cha = N[C@@H](CC1CCCCC1)C(=O)O; Ile(3ξ) = CCC(C)[C@H](N)C(=O)O; dPhg = N[C@@H](C(=O)O)c1ccccc1; Thr(3ξ) = CC(O)[C@H](N)C(=O)O; Carboxymethyl = O=C(O)C*; NMeA = CN[C@@H](C)C(=O)O; Orn = NCCC[C@H](N)C(=O)O; dAbu = CC[C@@H](N)C(=O)O; Dab = NCC[C@H](N)C(=O)O

T1 sequence (Q15116 25-288): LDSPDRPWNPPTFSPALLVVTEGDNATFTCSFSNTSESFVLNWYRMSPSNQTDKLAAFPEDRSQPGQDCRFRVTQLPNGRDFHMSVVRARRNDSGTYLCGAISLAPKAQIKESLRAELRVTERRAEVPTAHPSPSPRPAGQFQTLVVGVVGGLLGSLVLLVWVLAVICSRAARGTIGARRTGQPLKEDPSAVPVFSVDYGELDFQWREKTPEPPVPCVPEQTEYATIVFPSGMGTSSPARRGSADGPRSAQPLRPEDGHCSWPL

This test addresses T1, PE-labeled human PD-L1-Ig binding to Jurkat cell line over-expressing human PD-1 (Jurkat-PD-1) (Homo sapiens, UniProt Q15116).
T1 construct: expressed in transfected cells; host or cells: Jurkat
In words: Jurkat-PD-1 Cell Binding High-Content Screening Assay (CBA): Method 1. The following applies: Jurkat-hPD-1 cells, PE-labeled PD-L1-Ig 20 nM final; read-out: Jurkat HPDL1 PD1 IC50 (uM) (Method 1).
For the compound `CC(C)C[C@@H]1NC(=O)[C@H](CCCNC(=N)N)NC(=O)[C@@H](c2ccccc2)NC(=O)[C@H](C)N(C)C(=O)[C@H](CCCNC(=N)N)NC(=O)[C@H](Cc2ccc(-c3ccccc3)cc2)NC(=O)[C@H](C(C)C)NC(=O)[C@H](Cc2c[nH]c3ccccc23)NC(=O)[C@H](CC(=O)O)NC(=O)[C@H](Cc2ccc(O)cc2)NC(=O)[C@H](Cc2ccccc2)NC(=O)CSC[C@@H](C(=O)N[C@@H](C)C(N)=O)NC(=O)[C@H]([C@@H](C)O)NC(=O)[C@H](C(C)C)NC1=O` [Compound 1059] ({CH2CO}-FYDWV[Bip]R[NMeA][dPhg]RLVTCA-NH2; thioether N-14), the half-maximal inhibitory concentration (IC50) worked out at 0.21 µM.
For `Cc1cccc(C[C@@H]2NC(=O)[C@H](CC(=O)O)NC(=O)[C@H](Cc3ccc(O)cc3)NC(=O)[C@H](CC(N)=O)NC(=O)CSC[C@@H](C(=O)N[C@@H](C)C(N)=O)NC(=O)[C@H]([C@@H](C)O)NC(=O)[C@H](C(C)C)NC(=O)[C@H](CC(C)C)NC(=O)[C@H](CCN)NC(=O)[C@@H](CC(C)C)NC(=O)[C@H](C)N(C)C(=O)[C@H](Cc3cnc[nH]3)NC(=O)[C@H](Cc3ccc(-c4ccccc4)cc3)NC(=O)[C@H](C(C)C)NC2=O)c1` [Compound 1376] ({CH2CO}-NYD[Phe(3-Me)]V[Bip]H[NMeA][dL][Dab]LVTCA-NH2; thioether N-14) the value was 0.02 µM; for `CC(C)C[C@@H]1NC(=O)[C@H](CCCNC(=N)N)NC(=O)[C@@H](CC(C)C)NC(=O)[C@H](C)N(C)C(=O)[C@H](CCCNC(=N)N)NC(=O)[C@H](Cc2ccc(-c3ccccc3)cc2)NC(=O)[C@H](C(C)C)NC(=O)[C@H](Cc2c[nH]c3ccccc23)NC(=O)[C@H](CC(=O)O)NC(=O)[C@H](Cc2ccc(O)cc2)NC(=O)[C@H](Cc2ccccc2)NC(=O)CSC[C@@H](C(=O)N[C@@H](C)C(N)=O)NC(=O)[C@H]([C@@H](C)O)NC(=O)[C@H](C(C)C)NC1=O` [Compound 1048] ({CH2CO}-FYDWV[Bip]R[NMeA][dL]RLVTCA-NH2; thioether N-14), 0.06 µM; for `Cc1cccc(C[C@@H]2NC(=O)[C@H](CC(=O)O)NC(=O)[C@H](Cc3ccc(OCC(=O)O)cc3)NC(=O)[C@H](CC(N)=O)NC(=O)CSC[C@@H](C(N)=O)NC(=O)[C@H](CC(N)=O)NC(=O)[C@H](C(C)C)NC(=O)[C@H](CC3CCCCC3)NC(=O)[C@H](CCN)NC(=O)[C@@H](CC(C)C)NC(=O)[C@H](C)N(C)C(=O)[C@H](Cc3ccc(OCC(=O)O)cc3)NC(=O)[C@H](Cc3ccc(-c4ccccc4)cc3)NC(=O)[C@H](Cc3ccc(OCC(=O)O)cc3)NC2=O)c1` [Compound 1664] ({CH2CO}-NY(Carboxymethyl)D[Phe(3-Me)]Y(Carboxymethyl)[Bip]Y(Carboxymethyl)[NMeA][dL][Dab][Cha]VNC-NH2; thioether N-14), 0.05 µM.
For `CC(C)C[C@@H]1NC(=O)[C@H](CCN)NC(=O)[C@@H](CC(C)C)NC(=O)[C@H](C)N(C)C(=O)[C@H](CCCNC(=N)N)NC(=O)[C@H](Cc2ccc(-c3ccccc3)cc2)NC(=O)[C@H](C(C)C)NC(=O)[C@H](Cc2c[nH]c3ccccc23)NC(=O)[C@H](CC(=O)O)NC(=O)[C@H](Cc2cccc(OCC(=O)O)c2)NC(=O)[C@H](CC(N)=O)NC(=O)CSC[C@@H](C(=O)N[C@@H](C)C(N)=O)NC(=O)[C@H]([C@@H](C)O)NC(=O)[C@H](C(C)C)NC1=O` [Compound 1372] ({CH2CO}-N[Phe(3-OCH2COOH)]DWV[Bip]R[NMeA][dL][Dab]LVTCA-NH2; thioether N-14) the value was 0.14 µM; for `CC(C)C[C@@H]1NC(=O)[C@H](Cc2c[nH]c3ccccc23)NC(=O)[C@H](CC(=O)O)NC(=O)[C@H](Cc2ccc(OCC(=O)O)cc2)NC(=O)[C@H](Cc2ccncc2)NC(=O)CSC[C@@H](C(=O)NCC(N)=O)NC(=O)[C@H](CO)NC(=O)[C@H](C(C)C)NC(=O)[C@H](CC(C)C)NC(=O)[C@H](CC(N)=O)NC(=O)[C@@H](CC(C)C)NC(=O)[C@H](C)N(C)C(=O)[C@H](C(C)C)NC(=O)[C@H](Cc2ccc(-c3ccccc3)cc2)NC1=O` [Compound 1551] ({CH2CO}-[4Pal]Y(Carboxymethyl)DWL[Bip]V[NMeA][dL]NLVSCG-NH2; thioether N-14), 0.01 µM.
For the compound `Cc1cccc(C[C@@H]2NC(=O)[C@H](CC(=O)O)NC(=O)[C@H](Cc3ccc(OCC(=O)O)cc3)NC(=O)[C@H](CN3CCOCC3)NC(=O)CSC[C@@H](C(=O)N[C@@H](CCN)C(N)=O)NC(=O)[C@H](CCCN)NC(=O)[C@H](C(C)C)NC(=O)[C@H](Cc3ccccc3F)NC(=O)[C@H](CCN)NC(=O)[C@@H](CC(C)C)NC(=O)[C@H](C)N(C)C(=O)[C@H](CCC(N)=O)NC(=O)[C@H](Cc3ccc(-c4ccccc4)cc3)NC(=O)[C@H](Cc3ccc(C(=O)O)cc3)NC2=O)c1` [Example 2296] ({CH2CO}-[Ala(morpholin-4-yl)]Y(Carboxymethyl)D[Phe(3-Me)][Phe(4-COOH)][Bip]Q[NMeA][dL][Dab][Phe(2-F)]V[Orn]C[Dab]-NH2; thioether N-14), the IC50 was determined as 0.44 µM.
The value for `Cc1cccc(C[C@@H]2NC(=O)[C@H](CC(=O)O)NC(=O)[C@H](Cc3ccc(O)cc3)NC(=O)[C@H](Cc3ccccc3)NC(=O)CSC[C@@H](C(=O)NCC(N)=O)NC(=O)[C@H](CO)NC(=O)[C@H](C(C)C)NC(=O)[C@H](CC(C)C)NC(=O)[C@H](CC(N)=O)NC(=O)[C@@H](CC(C)C)NC(=O)[C@H](C)N(C)C(=O)[C@H](C(C)C)NC(=O)[C@H](Cc3ccc(-c4ccccc4)cc3)NC(=O)[C@H](CC(C)C)NC2=O)c1` [Compound 1517] ({CH2CO}-FYD[Phe(3-Me)]L[Bip]V[NMeA][dL]NLVSCG-NH2; thioether N-14) was 0.02 µM; that for `CC[C@H](C)[C@@H]1NC(=O)[C@H](Cc2ccc(-c3ccccc3)cc2)NC(=O)[C@H](CC(C)C)NC(=O)[C@H](Cc2c[nH]c3ccccc23)NC(=O)[C@H](CC(=O)O)NC(=O)[C@H](Cc2ccc(C(=O)O)cc2)NC(=O)[C@H](Cc2ccc(OCC(=O)O)cc2)NC(=O)CSC[C@@H](C(N)=O)NC(=O)[C@H](CO)NC(=O)[C@H](C(C)C)NC(=O)[C@H](CC2CCCCC2)NC(=O)[C@H](CCN)NC(=O)[C@@H](CC(C)C)NC(=O)[C@H](C)N(C)C1=O` [Compound 1635] ({CH2CO}-Y(Carboxymethyl)[Phe(4-COOH)]DWL[Bip]I[NMeA][dL][Dab][Cha]VSC-NH2; thioether N-14) was 0.01 µM; that for `CC[C@H]1NC(=O)[C@H](C)N(C)C(=O)[C@H](C(C)C)NC(=O)[C@H](Cc2ccc(-c3ccccc3)cc2)NC(=O)[C@H](CC(C)C)NC(=O)[C@H](Cc2c[nH]c3ccccc23)NC(=O)[C@H](CC(=O)O)NC(=O)[C@H](Cc2ccc(O)cc2)NC(=O)[C@H](Cc2ccccc2)NC(=O)CSC[C@@H](C(=O)N[C@@H](C)C(N)=O)NC(=O)[C@H](CO)NC(=O)[C@H](C(C)C)NC(=O)[C@H](CC(C)C)NC(=O)[C@H](CC(N)=O)NC1=O` [Compound 1763] ({CH2CO}-FYDWL[Bip]V[NMeA][dAbu]NLVSCA-NH2; thioether N-14) was 0.04 µM.
Turning to `CCC(C)[C@@H]1NC(=O)[C@H](Cc2ccc(-c3ccccc3)cc2)NC(=O)[C@H](C(C)C)NC(=O)[C@H](Cc2c[nH]c3ccccc23)NC(=O)[C@H](CC(=O)O)NC(=O)[C@H](Cc2ccc(O)cc2)NC(=O)[C@H](Cc2cc3ccccc3cn2)NC(=O)CSC[C@@H](C(=O)N[C@@H](C)C(N)=O)NC(=O)[C@H](C(C)O)NC(=O)[C@H](C(C)C)NC(=O)[C@H](CC2CCCCC2)NC(=O)[C@H](CCN)NC(=O)[C@@H](CC(C)C)NC(=O)[C@H](C)N(C)C1=O` (stereo partly drawn) [Compound 2044] ({CH2CO}-[X23]YDWV[Bip][Ile(3ξ)][NMeA][dL][Dab][Cha]V[Thr(3ξ)]CA-NH2; thioether N-14), the 50% inhibitory concentration (IC50) amounted to 0.02 µM.
